One assay concerns HT29-5FUR cells. The assay is described as follows: MTT cell viability assay, HT29-5FUR cells. The assay is classed as cell-based, human. The note with it: 25, 50, 100 and 200 nM for 24 and 48 hours. Here is the method:
HT29-5FUR cell line (human colon adenocarcinoma) provided by Dr. Jai-Sing Yang (China Medical University, Taiwan) was cultured in RPMI-1640 medium (Invitrogen, Carlsbad, Calif., USA) supplemented with 10% fetal bovine serum, 2 mM L-glutamine, 100 U/ml penicillin, and 100 μg/ml streptomycin.
Cells (1×10^4 cells/well) in 96-well plates were exposed to test MJ-66, and 0.1% DMSO in media served as a vehicle control. After 24 and 48 hr-incubations, […] MTT (0.5 mg/mL) solution was added to each well, the plate was incubated at 37° C. for 4 hours. Then, […] 0.04 N HCl in isopropanol was added and the absorbance at 570 nm was measured for each well. The cell survival rate was expressed as % of control. All results were performed from three independent experiments.
The growth inhibition effects of MJ-66 on HT29-5FUR cells were investigated. For cell viability assay, HT29-5FUR cells were cultured and treated with 0, 25, 50, 100 and 200 nM MJ-66 and the percentages of viable cells were detected by MTT assay described in “General materials and methods”.

The test system of assay [1] is U87 human glioma cell lines. The assay is described as follows: MTS cell viability assay, U87 glioma cells. The note with it: 48 hours, mean±SEM, n=3. The assay is classed as cell-based. Here is the method: (§1) The human glioma cell lines U87, U251, T98G, U373, and rat glioma cell line RT2 provided by Dr. Michael Hsiao (Genomics Research Center, Academia Sinica, Taiwan) were cultured in Dulbecco's Modified Eagle medium (DMEM) (Caisson) supplemented with 10% fetal bovine serum (FBS) (Sigma-Aldrich), 2 mM L-glutamine (Caisson), 100 U/ml penicillin, and 100 μg/ml streptomycin (Caisson). The rat glioma C6 cell line provided by Dr. Shun-Fen Tzeng (National Cheng Kung University, Taiwan) was cultured in DMEM/F12 (Caisson) supplemented with 10% fetal bovine serum, 2 mM L-glutamine, 100 U/ml penicillin, and 100 μg/ml streptomycin. The human normal glia cell line SVGP12, kindly provided by Dr. Michael Hsiao, was cultured in Minimum Essential Medium (MEM) (Invitrogen) supplemented with 10% fetal bovine serum, 2 mM L-glutamine, 100 U/ml penicillin, and […]. Primary glia cells were prepared by surgery. Cerebral cortices without meninges were dissected from postnatal (P0-P2) Sprague-Dawley (SD, NCKU Laboratory Animal Center) rats and dissociated in 0.05% trypsin-EDTA (Biowest) at 37° C. for 10 min. Culture medium was added and pipetted for several times, and supernatant was removed after a centrifugation at 1,000 rpm for 5 minutes. […]
(§2) Cell proliferation was determined by MTS (tetrazolium compound, 3-(4,5-dimethylthiazol-2-yl)-5-(3-carboxymethoxyphenyl)-2-(4-sulfophenyl)-2H-tetrazolium) assay (Promega). […] The absorbance of soluble formazan was measured at 490 nm with microplate reader (Molecular device). The cell viability was determined by the percentage of the absorption relative to untreated control. […]
To investigate the effect of 2-aryl-4-quinazolinone in accordance with the present invention on cell proliferation, glioma cell lines were treated with MJ-66, MJ-68, or MJ-78. […] The cell viability of each group was analyzed by MTS assay (mean±SEM, n=3).
On the technique in general: Formazan colour is commonly taken as a measure of viable cells.

Assay [2] concerns glioma cell lines C6, RT2, U87, U251, U373 and T98G. The assay is described as follows: MTS cell viability assay, glioma cell lines. The format is cell-based, rat and human. Here is the method: as §1, with “surgery.” for “surgery. Cerebral cortices without meninges were dissected from postnatal (P0-P2) Sprague-Dawley (SD, NCKU Laboratory Animal Center) rats and dissociated in 0.05% trypsin-EDTA (Biowest) at 37° C. for 10 min. Culture medium was added and pipetted for several times, and supernatant was removed after a centrifugation at 1,000 rpm for 5 minutes.”
as §2
The effects of MJ-66 on other glioma cell lines were further examined. […] Cell viability was assessed by MTS assay (mean±SEM, n=3). […]

The subject of the next assay is HSC-3. The assay is described as follows: trypan blue exclusion assay, HSC-3 cells. The format is cell-based, human. The note with it: HSC-3 human squamous carcinoma; trypan blue exclusion assay. Here is the method:
The HSC-3 (human oral squamous cell carcinoma) were cultured in 1:1 Dulbecco's Modified Eagle's Medium (DMEM) and Ham's Nutrient Mixture F-12, containing 10% FBS (HyClone, Logan, Utah, USA), 100 U/ml penicillin, 100 μg/ml streptomycin (Gibco BRL, Rockville, Md., USA) and 2 mM glutamine (Merck, Darmstadt, Germany).
Cell viability was also determined by trypan-blue exclusion assay. Cells were seeded in 6-well plates (2×10^4/well) for trypan blue exclusion assay, and incubated for 24 hours at 37° C. Culture medium containing test compound or DMSO (0.006%) was added to each well, and cells were incubated at 37° C. At indicated time points (0, 24, 48, 72 and 96 hr), cells were suspended with 0.05% trypsin-EDTA, and stained with trypan-blue dye (0.4%) (Sigma). The cell viability was evaluated by the percentage of death relative to the total cell, and cell growth curve was determined by number of live cells relative to the total number of cells.
The anti-proliferation effects of Compounds 17-31 on M21, CH27, H460, Hep3B and HSC-3 cells were evaluated by the trypan blue exclusion assay.

Molecules are shown by their SMILES.

For orientation: IC50 means the concentration needed to halve the response being measured.

Take `O=c1[nH]c(-c2cccc3ccccc23)nc2ccc(N3CCCC3)cc12` [Compound 23, 6-(Pyrrolidin-1-yl)-2-(naphthalen-1-yl)quinazolin-4-one]: the “cell number of HT29-5FUR relative to control” value with HT29-5FUR cells was “dose-dependent decreases”. Moreover, the IC50 in assay [1] is 54 ± 10 nM; in assay [2] (Glioma cell, in vitro, read-out: IC50, growth of glioma cells), roughly 60 nM; in the assay with HSC-3, 41 nM. For the same compound, the “survival rates of glioma cell lines” value in assay [2] (0.00625-1 μM, 24, 48 and 72 hr, MTS assay) was “decreased in a time- and concentration-dependent manner”.

The record behind these values is patent US8710064B2, “2-aryl-4-quinazolinones and their pharmaceutical compositions” (China Medical University, priority 2011, dated 2014).
